Laboratory results taken from US8940716B2, “Bicyclic heteroaryl compounds as GPR119 modulators” (Bristol-Myers Squibb Company, priority 2010, dated 2015).

Key:
[1] = tested on: plasma glucose in male C57BL/6J mice; test: Mouse oral glucose tolerance test; format: in vivo
Method: Twenty four (24) male C57BL/6J mice (8-10 weeks old, average weight 28 g) were randomized into 4 groups (1 mouse/cage) of 6 mice per group based on fed plasma glucose and body weight. Prior to initiating the study, mice were fasted overnight and the next morning they were weighed and placed in the experimental lab. After 30 min in the environment, the mice were bled via tail tip at −60 min and immediately given their first oral administration of vehicle (40% PEG400, 10% Cremophor EL, 50% water) or compound solutions (5 ml/kg). At time 0 the mice were bled and given 50% glucose (2 g/kg) to initiate the oral glucose tolerance test (oGTT). The mice were bled 30, 60 and 120 min after the glucose load. Blood samples were drawn into potassium EDTA, placed on ice during the study and subsequently centrifuged for 10 min at 3000 rpm at 4° C. Plasma samples were diluted 11-fold for glucose analysis in the COBAS MIRA® System (Roche Diagnostics). Area under the curve was calculated from the plasma glucose time course data using the trapezoid rule with fasting plasma glucose as the baseline (GraphPad Prism Software). The statistical significance of the changes in the glucose AUCs resulting from the different treatments was determined by one-way ANOVA followed by Dunnett's test using the vehicle group as the control (JMP software, release 5.1.2). […]

[2] = target: T1, human-mouse chimeric GPR119 (Homo sapiens, UniProt Q8TDV5, A235T/C313R/C323Y/E253K/F304I/F307L/G211A/G245S/H255C/K284R/L224V/L258Q/L288Q/L301F/P218V/P318T/Q252H/R262K/S214P/S219N/S228A/S309P/S322A/T217S/T239S/V227I/V300F); test: Tet-inducible cAMP assay; format: cell-based; conditions: cAMP accumulation (HTRF), Flp-In-T-Rex-HEK293 cells expressing chimeric human/mouse GPR119, 50 min incubation; read-out: GPR119 EC50
T1 construct: the first 198 amino acids of human GPR119; the C-terminal 137 amino acids of the mouse receptor; expressed in transfected cells
T1 sequence (Q8TDV5 with tags, fused parts or gaps G211A/S214P/T217S/P218V/S219N/L224V/V227I/S228A/A235T/T239S/G245S/Q252H/E253K/H255C/L258Q/R262K/K284R/L288Q/V300F/L301F/F304I/F307L/S309P/C313R/P318T/S322A/C323Y): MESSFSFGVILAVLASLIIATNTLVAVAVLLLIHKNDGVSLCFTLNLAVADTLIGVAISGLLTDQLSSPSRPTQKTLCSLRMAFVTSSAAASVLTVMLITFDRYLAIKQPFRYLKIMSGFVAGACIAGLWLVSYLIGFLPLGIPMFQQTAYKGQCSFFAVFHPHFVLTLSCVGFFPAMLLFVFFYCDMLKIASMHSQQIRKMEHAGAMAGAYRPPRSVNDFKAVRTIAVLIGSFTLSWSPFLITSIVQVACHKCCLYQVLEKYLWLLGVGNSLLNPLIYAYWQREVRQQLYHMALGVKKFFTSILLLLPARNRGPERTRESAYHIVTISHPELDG
Method: The in vitro modulation of recombinant human GPR119 was determined as follows.
A human-mouse chimeric GPR119 expression construct encoding 3 copies of the FLAG epitope tag, the first 198 amino acids of human GPR119 and the C-terminal 137 amino acids of the mouse receptor was cloned into a tetracycline inducible vector pcDNA5/FRT/TO (Invitrogen #V6520-20), which includes a hygromycin-resistance marker. Tightly controlled receptor expression was achieved by stable integration of this construct into the genome of a specific host cell line, Flp-In-T-Rex-HEK293, expressing the tetracycline repressor (Invitrogen). Once a stable hygromycin-resistant cell line was generated, the cells were maintained at 37° C. in a humidified 5% CO2 atmosphere in culture medium consisting of Dulbecco's modified Eagle's medium (DMEM; Invitrogen #11960) supplemented with 2 mM L-glutamine, 10% fetal bovine serum, 200 μg/ml hygromycin B, and 15 μg/ml blasticidin.
Forty-eight hours prior to the cAMP accumulation assay, cells stably expressing the chimeric human/mouse GPR119 construct were seeded at a density of 4×10^3 cells/well in 384 well poly-D-lysine coated solid white plates (BD #35-6661) and grown at 37° C. in a humidified 5% CO2 atmosphere in culture medium supplemented with 1 μg/ml tetracycline to induce expression of the receptor. On the day of the assay, medium was removed and cells were incubated for 50 min. at 37° C. in a humidified 5% CO2 atmosphere in 20 μl/well of assay buffer (phosphate-buffered saline with Ca^2+ and Mg^2+, 12 mM glucose, 0.1 mM isobutyl-methyl-xanthine, 0.1% fatty-acid free bovine serum albumin) with the desired concentration of compound added from a concentrated stock dissolved in dimethyl sulfoxide (DMSO) to give a final concentration of 1% DMSO in the assay. cAMP accumulation was measured using the CisBio homogeneous time resolved fluorescence (HTRF) assay kit (#62AM2PEC) following the manufacturer's protocol. Briefly, 10 μl each of the cAMP-HTRF fluorescence detection reagents were added to each well, and the samples were incubated for 40 min. at room temperature. Fluorescence was excited at 320 nm and measured at 665 and 620 nm using the Envision instrument (Perkin Elmer), the fluorescence ratio of 665/620 was calculated and converted to nanomolar concentrations of cAMP in each well by interpolation from a cAMP standard curve. The concentration-response curves and EC50 values were calculated with a four parameter logistic curve fit equation utilizing Excel/XLfit software (Microsoft and IDBS). The EC50 value was calculated as the concentration of agonist which increased the cAMP concentration to a value halfway between the baseline and the maximum.
Compounds of the present invention were tested in the Tet-inducible cAMP assay described immediately above and the results shown in Table 2 below were obtained.

SMILES	Glucose Lowering (%) ([1]; change in plasma glucose AUC vs vehicle at the minimally efficacious dose, oGTT, oral)	Minimally efficacious Dose ([1]; oral administration 60 min before glucose load (2 g/kg), fasted male C57BL/6J mice)	EC50 [2]
CCCc1cnc(N2CCC(Oc3nc4ccc(C5=CCN(S(=O)(=O)CCC)CC5)cc4s3)CC2)nc1 [Example 1, 2-(1-(5-Propylpyrimidin-2-yl)piperidin-4-yloxy)-6-(1-(propylsulfonyl)-1,2,3,6-tetrahydropyridin-4-yl)benzo[d]thiazole]	−39%	10 mg/kg	
CC(C)(O)CCS(=O)(=O)N1CCC(c2ccc3nc(OC4CCN(c5ncc(Cl)cn5)CC4)sc3c2)CC1 [Example 246]			3.9 nM
CCCc1cnc(N2C[C@@H]3[C@@H](COc4nc5ccc(-c6ccc(S(C)(=O)=O)cc6)cc5s4)[C@@H]3C2)nc1 [Example 266]			1080 nM
Cc1nnc(N2CCC(Oc3nc4ccc(-c5ccc(S(C)(=O)=O)cc5)cc4s3)CC2)s1 [Example 294]			20.4 nM
Cc1cc(C)nc(N2CCC(Oc3nc4ccc(-c5ccc(S(C)(=O)=O)cc5)cc4s3)CC2)n1 [Example 296]			46.1 nM
CC(C)OC(=O)N1CCC(Oc2nc3ccc(C4=CCN(C(=O)OC(C)(C)C)CC4)cc3s2)CC1 [Example 301]			345 nM
